Measurements published in patent US8906909B2 (Curis, Inc., priority 2009, dated 2014).
Where two headings read alike, the source gives them in different places.

Experiments:
Type in all cases: cell-based
[1] = system: HCC1500 cells; test: Cell proliferation assay Method B, HCC1500; conditions: Breast, 72 hours, read-out: antiproliferative activity IC50, HCC1500
Protocol: (§1) Cancer cell lines were plated at 5,000 to 10,000 per well in 96-well flat bottomed plates with various concentration of compounds. The cells were incubated with compounds for 72 hours in the presence of 0.5% of fetal bovine serum. Growth inhibition was accessed by adenosine triphosphate (ATP) content assay using Promega CellTiter-Glo kit. Promega CellTiter-Glo kit is an ATP monitoring system based on firefly luciferase. Briefly, 16 μl of mammalian cell lysis and substrate solution was added to 84 μl of culture medium per well to lyse the cells and stabilize the ATP. The mixture was shaken and incubated for 30 minutes and subsequently the luminescence was measured.

[2] = system: HCC1806 cells; test: Cell proliferation assay Method B, HCC1806; conditions: Homo sapiens, Breast, 72 hours, read-out: antiproliferative activity IC50, HCC1806
Protocol: as §1

[3] = system: HL-60 cells; test: Cell proliferation assay Method B, HL-60; conditions: Homo sapiens, AML, 72 hours, read-out: antiproliferative activity IC50, HL-60
Protocol: as §1

[4] = system: T47D cells; test: Cell proliferation assay Method B, T47D; conditions: Homo sapiens, Breast, 72 hours, read-out: antiproliferative activity IC50, T47D
Protocol: as §1

[5] = system: MOLT-4 cells; test: Cell proliferation assay Method B, MOLT-4; conditions: Homo sapiens, ALL, 72 hours, read-out: antiproliferative activity IC50, MOLT-4
Protocol: as §1

[6] = system: SKBr3 cells; test: Cell proliferation assay Method B, SKBr3; conditions: Homo sapiens, SK-BR-3, Breast, 72 hours, read-out: antiproliferative activity IC50, SKBr3
Protocol: as §1

[7] = system: P388 D1 cells; test: Cell proliferation assay Method B, P388 D1; conditions: P388D1, Mouse Lymphoma, 72 hours, read-out: antiproliferative activity IC50, P388 D1
Protocol: as §1

[8] = system: MV-4-11 cells; test: Cell proliferation assay Method B, MV-4-11; conditions: Homo sapiens, MV4-11, AML, 72 hours, read-out: antiproliferative activity IC50, MV-4-11
Protocol: as §1

[9] = system: MDA-MB-231 cells; test: Cell proliferation assay Method B, MDA-MB-231; conditions: Homo sapiens, Breast, Method B, 72 hours
Protocol: as §1

[10] = system: L1210 cells; test: Cell proliferation assay Method B, L1210; conditions: Mouse LL, 72 hours, read-out: antiproliferative activity IC50, L1210
Protocol: as §1

[11] = system: THP-1 cells; test: Cell proliferation assay Method B, THP-1; conditions: Homo sapiens, AML, 72 hours, read-out: antiproliferative activity IC50, THP-1
Protocol: as §1

[12] = system: ARH77 cells; test: Cell proliferation assay Method B, ARH77; conditions: Homo sapiens, ARH-77, Multiple Myeloma, 72 hours, read-out: antiproliferative activity IC50, ARH77
Protocol: as §1

[13] = system: RPMI-8226 cells; test: Cell proliferation assay Method B, RPMI-8226; conditions: Homo sapiens, Multiple Myeloma, Method B, 72 hours, read-out: antiproliferative activity IC50, RPMI-8226
Outline: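 Growth inhibition was scored by luciferase-based ATP luminescence (CellTiter-Glo, 30 min after lysis). This followed 72 h of compound exposure in medium with 0.5% fetal bovine serum, with 5,000–10,000 cells seeded per well.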

[14] = system: ZR-75-1 cells; test: Cell proliferation assay Method B, ZR-75-1; conditions: Homo sapiens, Breast, 72 hours, read-out: antiproliferative activity IC50, ZR-75-1
Protocol: as §1

[15] = system: MDA-MB-361 cells; test: Cell proliferation assay Method B, MDA-MB-361; conditions: Homo sapiens, Breast, 72 hours, read-out: antiproliferative activity IC50, MDA-MB-361
Protocol: as §1

[16] = system: MCF-7 cells; test: Cell proliferation assay Method B, MCF-7; conditions: Homo sapiens, MCF7, Breast, 72 hours, read-out: antiproliferative activity IC50, MCF-7
Protocol: as §1

[17] = system: Sk-Mel-28 cells; test: Cell proliferation assay Method B, Sk-Mel-28; conditions: Homo sapiens, SK-MEL-28; Melanoma; Method B; 72 hours; read-out: antiproliferative activity IC50, Sk-Mel-28
Protocol: as §1

[18] = system: Ca127 cells; test: Cell proliferation assay Method B, Ca127; conditions: HNC; Method B; 72 hours; read-out: antiproliferative activity IC50, Ca127
Protocol: as §1

[19] = system: U87MG cells; test: Cell proliferation assay Method B, U87MG; conditions: Homo sapiens, U-87 MG; Glioblastoma; Method B; 72 hours; read-out: antiproliferative activity IC50, U87MG
Protocol: as §1

[20] = system: K562 cells; test: Cell proliferation assay Method B, K562; conditions: Homo sapiens, CML, 72 hours, read-out: antiproliferative activity IC50, K562
Protocol: as §1

[21] = system: H1993 cells; test: Cell proliferation assay Method B, H1993; conditions: Homo sapiens, NCI-H1993; NSCLC; Method B; 72 hours; read-out: antiproliferative activity IC50, H1993
Protocol: as §1

[22] = system: Pfeiffer cells; test: Cell proliferation assay Method B, Pfeiffer; conditions: Homo sapiens, NHL, 72 hours, read-out: antiproliferative activity IC50, Pfeiffer
Protocol: as §1

[23] = system: Raji cells; test: Cell proliferation assay Method B, Raji; conditions: Homo sapiens, NHL, 72 hours, read-out: antiproliferative activity IC50, Raji
Protocol: as §1

[24] = system: MEG-01 cells; test: Cell proliferation assay Method B, MEG-01; conditions: Homo sapiens, CML, 72 hours, read-out: antiproliferative activity IC50, MEG-01
Protocol: as §1

[25] = system: U937 cells; test: Cell proliferation assay Method B, U937; conditions: Homo sapiens, U-937, AML, 72 hours, read-out: antiproliferative activity IC50, U937
Protocol: as §1

[26] = system: UACC-893 cells; test: Cell proliferation assay Method B, UACC-893; conditions: Homo sapiens, Breast, 72 hours, read-out: antiproliferative activity IC50, UACC-893
Protocol: as §1

[27] = system: MDA-MB-453 cells; test: Cell proliferation assay Method B, MDA-MB-453; conditions: Homo sapiens, Breast, 72 hours, read-out: antiproliferative activity IC50, MDA-MB-453
Protocol: as §1

[28] = system: HCC1937 cells; test: Cell proliferation assay Method B, HCC1937; conditions: Homo sapiens, Breast, Method B, 72 hours, read-out: antiproliferative activity IC50, HCC1937
Protocol: as §1

[29] = system: MDA-MB-436 cells; test: Cell proliferation assay Method B, MDA-MB-436; conditions: Homo sapiens, Breast, Method B, 72 hours, read-out: antiproliferative activity IC50, MDA-MB-436
Protocol: as §1

[30] = read-out: antiproliferative activity IC50, MDA-MB-231 (second listing, r32)

## CS(=O)(=O)N1CCN(Cc2cc3nc(-c4cccc5[nH]ncc45)nc(N4CCOCC4)c3s2)CC1 [GDC-0941, reference compound]
[1]
  IC50: > 10000 nM
[2]
  IC50: > 10000 nM
[3]
  IC50: 100 to 1000 nM
[4]
  IC50: > 10000 nM
[5]
  IC50: 100 to 1000 nM
[6]
  IC50: > 10000 nM
[7]
  IC50: 1000 to 10000 nM
[8]
  IC50: 1000 to 10000 nM
[9]; read-out: antiproliferative activity IC50, MDA-MB-231 (first listing, r25)
  IC50: > 10000 nM
[9]; [30]
  IC50: > 10000 nM
[10]
  IC50: > 10000 nM
[11]
  IC50: 1000 to 10000 nM
[12]
  IC50: > 10000 nM
[13]
  IC50: > 10000 nM
[14]
  IC50: 100 to 1000 nM
[15]
  IC50: 100 to 1000 nM
[16]
  IC50: 100 to 1000 nM
[17]
  IC50: 10 to 100 nM
[18]
  IC50: 100 to 1000 nM
[19]
  IC50: 100 to 1000 nM
[20]
  IC50: > 10000 nM
[21]
  IC50: 1000 to 10000 nM
[22]
  IC50: 100 to 1000 nM
[23]
  IC50: > 10000 nM
[24]
  IC50: > 10000 nM
[25]
  IC50: 1000 to 10000 nM
[26]
  IC50: 1000 to 10000 nM
[27]
  IC50: 100 to 1000 nM
[28]
  IC50: 100 to 1000 nM
[29]
  IC50: 1000 to 10000 nM

## CN(Cc1cc2nc(-c3ccc(N)cc3)nc(N3CCOCC3)c2s1)c1ncc(C(=O)NO)cn1 [Compound 150, 2-(((2-(4-aminophenyl)-4-morpholinothieno[3,2-d]pyrimidin-6-yl)methyl)(methyl)amino)-N-hydroxypyrimidine-5-carboxamide]
[1]
  IC50: < 10 nM
[2]
  IC50: 10 to 100 nM
[3]
  IC50: < 10 nM
[4]
  IC50: < 10 nM
[5]
  IC50: < 10 nM
[6]
  IC50: 10 to 100 nM
[7]
  IC50: < 10 nM
[8]
  IC50: < 10 nM
[9]; [30]
  IC50: 10 to 100 nM
[10]
  IC50: < 10 nM
[11]
  IC50: < 10 nM
[12]
  IC50: < 10 nM
[13]
  IC50: < 10 nM
[14]
  IC50: 10 to 100 nM
[15]
  IC50: < 10 nM
[16]
  IC50: < 10 nM
[17]
  IC50: < 10 nM
[18]
  IC50: < 10 nM
[19]
  IC50: < 10 nM
[20]
  IC50: 10 to 100 nM
[21]
  IC50: < 10 nM
[22]
  IC50: < 10 nM
[23]
  IC50: < 10 nM
[24]
  IC50: 10 to 100 nM
[25]
  IC50: < 10 nM
[26]
  IC50: < 10 nM
[27]
  IC50: < 10 nM
[28]
  IC50: < 10 nM
[29]
  IC50: < 10 nM
